The values that follow come from patent US12419870B2, “Compositions and methods for immune cell modulation in adoptive immunotherapies” (Fate Therapeutics, Inc., priority 2016, dated 2025).

Counter-ions that a name gives are not always drawn.

One assay has as its system viable CD8+ population. As to the kind of experiment: In vitro T cell culture compound screen, flow cytometry for cells co-expressing CCR7 and CD62L in CD8+ cells. It is filed as cell-based, human. As to conditions: 10 μM, about 6 days; for CD8 Hit: anti-CD3/anti-CD28 beads, hit criteria: Z-score > +2 for percent or relative absolute number of CCR7+CD62L+ cells; for number or ratio of cells co-expressing CCR7 and CD62L: viable CD8+ population. The text has this: (§1) In Vitro T Cell Culture. Fresh leukopaks (AllCells, Alameda, CA) were obtained from healthy donors, from which T cells were negatively selected using the EasySep Human T Cell Enrichment Kit (Stem Cell Technologies, Vancouver, Canada). The freshly isolated T cells were aliquoted and cryopreserved. On the day the screens were initiated, T cells were thawed and washed into X-Vivo 15 with 5% human AB serum, IL-2, pen/strep, and additional supplements. Cells were dispensed into flat-bottom 384-well plates at 5×10^5 cells/ml with anti-CD3/Anti-CD28 dynabeads (ThermoFisher, Waltham, MA) at a 3:1 bead-to-cell ratio. Individual compounds were added at a final concentration of 10 μM to each well from column 3 to column 22 of each plate. Positive and negative controls were added to additional wells. Cells were incubated for about 6 days at 37 degrees with 5% CO2.
(§2) Flow Cytometry. On Day 6 of culture, cells were stained with a fixable viability marker and fluorophore-conjugated antibodies: CD3, CD4, CD8, CD45RA, CD45RO, CD62L, CCR7, CD27, and CD122 (BD Biosciences, San Jose, CA; and BioLegend, San Diego, CA). Fluorescent absolute counting beads (Spherotech, Lake Forest, IL) were added just prior to acquisition. Data acquisition was performed on a BD Fortessa X-20 (BD Biosciences) and data were analyzed using Treestar software (FlowJo, Ashland, OR) and Spotfire (Tibco, Boston, MA).
(§3) These cells are characterized by expression of CCR7 and CD62L. Therefore, cells co-expressing both of these identifying markers were evaluated. Within the viable CD4+ population and viable CD8+ population, the percent of cells co-expressing CCR7 and CD62L was determined. The expression of either CD62L or CCR7 on T cells, as indicative of the desired T cell subsets, have been described as having favorable functional characteristics for CAR-T cell therapy, and potentially other adoptive T cell therapies.
(§4) The number of events in each of these gates relative to the number of absolute counting beads in each sample was calculated, defining a relative measure of the absolute number of naïve, stem cell memory, or central memory T cells within the CD4+ and/or CD8+ populations. A z-Score relative to the screened compound samples within each 384-well plate was calculated for each of these four values: 1) percent CCR7+CD62L+ in CD4+, 2) percent CCR7+CD62L+ in CD8+, 3) absolute relative number of CCR7+CD62L+ in CD4+, and 4) absolute relative number of CCR7+CD62L+ in CD8+(FIGS. 1A and 1i). Z-scores were also calculated for the percent viability of all cells within each sample and the relative absolute number of cells within each sample. A “Z-Score” is a statistical measurement of a score's relationship to the mean in a group of scores. A Z-score of 0 means the score is the same as the mean. A Z-score can also be positive or negative, indicating whether it is above or below the mean and by how many standard deviations.

Another assay deals with viable CD4+ population. As to the kind of experiment: In vitro T cell culture compound screen, flow cytometry for cells co-expressing CCR7 and CD62L in CD4+ cells. It is filed as cell-based, human. As to conditions: 10 μM, about 6 days; for CD4 Hit: anti-CD3/anti-CD28 beads, hit criteria: Z-score > +2 for percent or relative absolute number of CCR7+CD62L+ cells; for number or ratio of cells co-expressing CCR7 and CD62L: viable CD4+ population.
Text: as §1, §2, §3, §4

The subject of another assay is Nalm-6-luc. As to the kind of experiment: In vivo tumor clearance by compound-treated CAR-T cells in tumor-bearing NSG mice. As to conditions: 0.2×10^6 CD4 and CD8 CAR-T cells 1:1, retroorbital, one week after tumor injection. The protocol: CAR-T cells were generated from CD4+ and CD8+ T cells that were separately activated and expanded in vitro. The cells were transduced with the CAR-2 construct (FIG. 2) one day after activation and then replated into 24-well GREX plates with or without the compounds. Half the media was replaced every two days thereafter until harvest one week post-activation. One week after tumor injection, the NSG mice were treated with 0.2×10^6 CD4 and CD8 CAR-T cells mixed at a 1:1 ratio via retroorbital injection. The mice were imaged periodically to determine tumor burden.

The next assay concerns CD8 T cells. As to the kind of experiment: CD27 cell surface expression on CAR-transduced CD8 T cells by flow cytometry. In kind it is cell-based, human. As to conditions: 20 nM rapa, 10 μM dmPGE2 or both; day 8; two donors; relative to vehicle (DMSO).
A further assay has as its system CD8+ T-cells. As to the kind of experiment: Genome-wide expression on Human Transcriptome Array microarray chips. The settings on record: 20 nM rapa, 10 μM dmPGE2 or both.

Protocol for CD8 T cells: (§5) In order to perform these studies, isolated CD8 T cells were activated in bulk on day 0 using CTS (Cell Therapy Systems) Dynabeads™ CD3/CD28 (Thermo Fisher Scientific, Waltham, MA) in T cell media supplemented with IL-2. On day 1, cells were transduced with the CAR Construct 1 shown in FIG. 2 and cell density was adjusted to 0.5×10^6/ml and 10^6 cells were seeded into 12 well plates in the presence of vehicle, 20 nM rapa, 10 μM dmPGE2 or both compounds at the same concentrations. On day 4, cells were transferred into 6-well plates and 2 ml of media was added to each well. On day 6 another 2 ml of media was added to each well. On day 8, cells were analyzed on a flow cytometer for cell surface expression of CD27.
Protocol for CD8+ T-cells: as §5

With “2-Naphthacenecarboxamide, 7-chloro-4-(dimethylamino)-1,4,4a,5,5a,6,11,12a-octahy”, in the assay with viable CD8+ population, the “CD8 Hit” value is reported as “CD8”; the “number or ratio of cells co-expressing CCR7 and CD62L” value (“number or ratio” for short) is “increased”.

For the molecule `CCC(CO)Nc1nc(NCc2ccccc2)c2ncn(C(C)C)c2n1` (stereo in doubt) [Roscovitine, (S)-Isomer], the “number or ratio” value in the assay on viable CD8+ population is “increased”. Also, the “CD4 Hit” value in the assay on viable CD4+ population was “CD4”.

As to `CCCc1c(-c2ccc(O)cc2)nn(-c2ccc(O)cc2)c1-c1ccc(O)cc1` [1,3,5-tris(4-hydroxyphenyl)-4-propyl-1H-pyrazole], the “number or ratio” value with viable CD8+ population was “increased”. Further, in the assay with viable CD4+ population, the “CD4 Hit” value is recorded as “CD4”.

Consider `N.S=C(S)N1CCCC1` [1-Pyrrolidinecarbodithioic acid, ammonium salt], for which the “number or ratio” value in the assay on viable CD8+ population is reported as “increased”. Further, in the assay with viable CD4+ population, the “CD4 Hit” value is “CD4”.

Take `Nc1ncn([C@@H]2O[C@H](CO)[C@@H](O)[C@H]2O)c(=O)n1` [5-Azacytidine]: in the assay on viable CD8+ population, the “CD8 Hit” value was “CD8”; the “number or ratio” value is “increased”. In addition, in the assay with viable CD4+ population, the “CD4 Hit” value is recorded as “CD4”; the “number or ratio” value is given as “increased”.

With `Sc1ncnc2nc[nH]c12` [6-Mercaptopurine], in the assay with viable CD8+ population, the “CD8 Hit” value is “CD8”; the “number or ratio” value was “increased”. Also, in the assay with viable CD4+ population, the “CD4 Hit” value is listed as “CD4”; the “number or ratio” value is given as “increased”.

For the molecule `Oc1c(Cl)cc(Cl)c2cccnc12` [8-Quinolinol,5,7-dichloro-], in the assay with viable CD8+ population, the “CD8 Hit” value was “CD8”; the “number or ratio” value was “increased”. Besides, in the assay on viable CD4+ population, the “CD4 Hit” value is reported as “CD4”; the “number or ratio” value is recorded as “increased”.

In the case of `Oc1c(I)cc(Cl)c2cccnc12` [8-Quinolinol,5-chloro-7-iodo-], in the assay on viable CD8+ population, the “CD8 Hit” value is reported as “CD8”; the “number or ratio” value was “increased”. In the assay with viable CD4+ population, the “CD4 Hit” value is recorded as “CD4”; the “number or ratio” value was “increased”.

For `CC[n+]1c(/C=C/C=C2/N(C)c3ccccc3C2(C)C)sc2ccccc21.[I-]` [AC-93253 iodide], in the assay with viable CD8+ population, the “CD8 Hit” value is reported as “CD8”; the “number or ratio” value was “increased”. Further, in the assay with viable CD4+ population, the “CD4 Hit” value is reported as “CD4”; the “number or ratio” value is “increased”.

As to `COc1ccc(-c2cc3nccn3c(Nc3ncccc3C(N)=O)n2)cc1OC` [BAY 61-3606], the “number or ratio” value in the assay on viable CD8+ population was “increased”. In addition, the “CD4 Hit” value with viable CD4+ population was “CD4”.

For the molecule `COc1cc2nc(N3CCCN(C)CC3)nc(NC3CCN(Cc4ccccc4)CC3)c2cc1OC` [BIX01294], the “number or ratio” value with viable CD8+ population is “increased”. Moreover, in the assay with viable CD4+ population, the “CD4 Hit” value is recorded as “CD4”.

With `CC[N+](C)(C)c1cccc(O)c1` [Edrophonium chloride], in the assay with viable CD8+ population, the “CD8 Hit” value is given as “CD8”; the “number or ratio” value was “increased”.

For the molecule `C[C@]12CC[C@@H]3c4ccc(O)cc4C[C@@H](CCCCCCCCC[S+]([O-])CCCC(F)(F)C(F)(F)F)[C@H]3[C@@H]1CC[C@@H]2O` (stereo partly shown) [Fulvestrant], in the assay on viable CD8+ population, the “CD8 Hit” value was “CD8”; the “number or ratio” value is “increased”.

Regarding `CC(C)C1CCC2(CO2)C2C(=O)OCC(C(=O)O)=CC12` (stereo not shown) [Heptelidic acid], in the assay with viable CD8+ population, the “CD8 Hit” value is “CD8”; the “number or ratio” value is reported as “increased”. In addition, in the assay with viable CD4+ population, the “CD4 Hit” value was “CD4”; the “number or ratio” value was “increased”.

Consider `O=C(N/N=C/c1ccc([N+](=O)[O-])o1)c1ccc(O)cc1` [Nifuroxazide], for which, in the assay with viable CD8+ population, the “CD8 Hit” value is “CD8”; the “number or ratio” value is recorded as “increased”.

As for `C=CCc1cccc(/C=N/NC(=O)CN2CCN(Cc3ccccc3)CC2)c1O` [PAC-1], the “number or ratio” value with viable CD8+ population is on record as “increased”. In the assay on viable CD4+ population, the “CD4 Hit” value is recorded as “CD4”.

As to `C=CC1=C(C)c2cc3[nH]c(cc4nc(cc5[nH]c(cc1n2)c(C)c5CCC(=O)O)C(CCC(=O)O)=C4C)c(C)c3C=C` [Protoporphyrin IX disodium], the “number or ratio” value in the assay with viable CD8+ population is “increased”. Besides, the “CD4 Hit” value in the assay on viable CD4+ population is “CD4”.

`CN(C)c1ccc(C=C2C(=O)Nc3ccccc32)cc1` [SU 4312]: in the assay on viable CD8+ population, the “CD8 Hit” value is given as “CD8”; the “number or ratio” value is “increased”.

Regarding `CN[C@H]1CC[C@@H](c2ccc(Cl)c(Cl)c2)c2ccccc21` [Sertraline], in the assay with viable CD8+ population, the “CD8 Hit” value is “CD8”. Further, in the assay on viable CD4+ population, the “CD4 Hit” value is “CD4”.

In the case of `Nc1cccc(-c2cc3c(Oc4cccc(O)c4)ncnc3[nH]2)c1` [TWS119], in the assay with Nalm-6-luc, the “tumor clearance / tumor control by treated CAR-T cells” value is on record as “minimal tumor control”.

Regarding `CCCc1nc2c(C)cc(-c3nc4ccccc4n3C)cc2n1Cc1ccc(-c2ccccc2C(=O)O)cc1` [Telmisartan], the “number or ratio” value with viable CD8+ population is reported as “increased”. Further, the “CD4 Hit” value in the assay with viable CD4+ population is listed as “CD4”.

On to `CC(C)(C)c1ccc(C(O)CCCN2CCC(C(O)(c3ccccc3)c3ccccc3)CC2)cc1` (stereo not shown) [Terfenadine], for which, in the assay on viable CD8+ population, the “number or ratio” value was “increased”. In addition, the “CD4 Hit” value in the assay with viable CD4+ population is “CD4”.

For `C/C=C(/C)C(=O)O[C@H]1C(C)=C2[C@H]([C@@H]1OC(=O)CCCCCCC)[C@@](C)(OC(C)=O)C[C@H](OC(=O)CCC)[C@@]1(O)[C@H]2OC(=O)[C@@]1(C)O` [Thapsigargin], in the assay on viable CD8+ population, the “CD8 Hit” value was “CD8”; the “number or ratio” value is “increased”.

As to `O=C(O)Cc1cc(I)c(Oc2ccc(O)c(I)c2)c(I)c1` [Tiratricol], in the assay with viable CD8+ population, the “CD8 Hit” value is recorded as “CD8”; the “number or ratio” value is on record as “increased”. For the same molecule, in the assay on viable CD4+ population, the “CD4 Hit” value is reported as “CD4”; the “number or ratio” value is recorded as “increased”.

`NC1CCN(c2nc3c(cc2F)c(=O)c(C(=O)O)cn3-c2ccc(F)cc2F)C1` (stereo not shown) [Tosufloxacin hydrochloride]: the “number or ratio” value in the assay on viable CD8+ population is on record as “increased”. In addition, the “CD4 Hit” value with viable CD4+ population is “CD4”.

Take `N#CC(=C(/N)Sc1ccccc1N)/C(C#N)=C(\N)Sc1ccccc1N` [U0126]: the “number or ratio” value with viable CD8+ population was “increased”. Besides, the “CD4 Hit” value in the assay on viable CD4+ population is reported as “CD4”. The “tumor clearance / tumor control by treated CAR-T cells” value in the assay on Nalm-6-luc was “minimal tumor control”.

Turning to `CO[C@H]1C[C@@H]2CC[C@@H](C)[C@@](O)(O2)C(=O)C(=O)N2CCCC[C@H]2C(=O)O[C@H]([C@H](C)C[C@@H]2CC[C@@H](O)[C@H](OC)C2)CC(=O)[C@H](C)/C=C(\C)[C@@H](O)[C@@H](OC)C(=O)[C@H](C)C[C@H](C)/C=C/C=C/C=C/1C` [rapamycin], the “CD27 expression, relative MFI (vehicle defined as 1)” value in the assay with CD8 T cells is “approximately 2 fold”. In the assay on CD8+ T-cells, the “total number of genes down-regulated more than 2 fold compared to vehicle control” value worked out at 284 and the “total number of genes up-regulated more than 2 fold compared to vehicle control” value is 215.

Regarding “Diethylenetriaminepentaacetic acid, penta sodium”, in the assay with viable CD8+ population, the “CD8 Hit” value is recorded as “CD8”; the “number or ratio” value was “increased”. Also, in the assay with viable CD4+ population, the “CD4 Hit” value is reported as “CD4”; the “number or ratio” value was “increased”.
